# Test results published in US5073571A, “Method of inhibiting virus” (priority 1989, dated 1991).
# Key:
# HIV-1 [1] = assay: HIV-1 replication in H9 cells, reverse transcriptase activity of culture supernatants (acute infection); type: cell-based, HIV-1 strain HXB2gptX (in human H9 cells); conditions: for relative efficacy on HIV-1 production: 1-100 μM, ranking among the four analogs
# Experimental: (§1) Media was changed every other day. The effect of these compounds on virus production was determined by measuring the reverse transcriptase (RT) activity in samples of the cell culture supernatants. […] Negative controls consisted of no additions or 0.1ethanol. The results of duplicate assays were averaged. Panel B -Concentration-dependent effects of 13-oxamyristic acid on HIV-1 replication as measured by RT activity (percent of untreated control) and the presence of p24 antigen (ng/ml determined by ELISA). Error bars indicate the S.E.M. of assays done in triplicate. Panel C - The effect of 13-oxamyristic acid on syncytia formation using an arbitrary scale described under Materials and Methods, Example 16, below. Panel D - Toxicity of 13-oxamyristic acid determined by viable cell count (trypan blue exclusion), as well as by [^3 H]thymidine and [^3 H]leucine labeling (see under Materials and Methods, Example 16, below). The incorporation of these radiolabeled compounds was determined in the total cell population contained in a well after 10 days of treatment with the analog. Duplicate assays were performed and the results averaged.
# Assay for HIV-1 Replication. The human T-lymphoid cell line, H9, was provided by R. D. Gallo (NIH) and maintained in RPMI-1640 medium supplemented with 10% fetal bovine serum, 100 IU/mL penicillin, 100 μg/mL streptomycin an 2 mM L-glutamine. HIV-1 strain HXB2gptX [Fisher et al., Science 233, 655-659 (1986)] was obtained from cultures of chronically infected H9 cells [Popovic et al., Science 224, 497-500 (1984)]< filtered through 0.2 μm Millipore filters and stored at -90° C. The titer of the virus stock was determined by serial dilution using syncytia formation and reverse transcriptase activity (see below) as a measure of infectivity in H9 cells.
# Cell-free HIV-1, at a multiplicity of infection (m.o.i.) equal to 0.01-0.001, was added to 10^7 H9 cells which had been pretreated with 2 μg/ml Polybrene® (hexadimethrene bromide, Sigma). Following a 30 min incubation at 37° C. to absorb the virus, 4 × 10^5 of virus treated cells in 1 mL of fresh medium (plus 10% fetal calf serum, pencillin and streptomycin) were added to each well of a 24 well tissue culture plate (Falcon), and mixed with an equal volume of serum-free RPMI-1640 medium containing analog. Medium containing 5% serum, antibiotics ± analog was replaced every other day. Each of the heteroatom substituted analogs was prepared as a 100 mM stock solution in 100% ethanol and stored at -90° C. prior to dilution in the serum-free RPMI-1640 medium. The maximum final ethanol concentration reached after dilution of the different analogs in media was 0.1%. Therefore, uninfected and infected H9 cells, treated with or without 0.1% ethanol, were used as controls for each test. Ethanol alone had no demonstrable effects.
# Except for the preliminary screening of the various (coded) analogs which was done twice, all other assays were performed at least three times. Samples were tested in duplicate each time the assay was repeated.
# Virus Assays. Virus was quantitated using supernatant solutions of cells harvested on day 8 (m.o.i.=0.01) or day 10 (m.o.i.=0.001) of treatment. Virions were concentrated 10 fold by precipitation of culture supernatants with a solution of polyethylene glycol (30% in 150 mM NaCl, 0.1 mM phenylmethylsulfonylfluoride). The precipitates were solubilized and virus-associated reverse transcriptase (RT) activity measured by [^32 P]TTP incorporation using a poly(rA)-oligo(dT) template [Poiesz et al., Proc. Natl. Acad. Sci. USA 77, 7415-7419 (1980)]. Cell supernatants were also tested for virus-specific antigen using a p24 ELISA from Dupont (Wilmington, DE). This assay can detect as little as 0.03 ng of antigen/mL (antigen=p24, the major structural nucleocapsid protein of HIV-1, as well as its precursor, Pr55^gag).
# HIV-1 Replication in H9 Cells is Inhibited by Treatment with Heteroatom-Containing Analogs of Myristate. […]
# HIV-1 [2] = assay: Syncytia assay in HIV-1 infected H9 cells; type: cell-based, HIV-1 strain HXB2gptX (in human H9 cells); conditions: H9 cells
# Experimental: as §1
# Assay for HIV-1 Replication. The human T-lymphoid cell line, H9, was provided by R. D. Gallo (NIH) and maintained in RPMI-1640 medium supplemented with 10% fetal bovine serum, 100 IU/mL penicillin, 100 μg/mL streptomycin an 2 mM L-glutamine. […] The titer of the virus stock was determined by serial dilution using syncytia formation and reverse transcriptase activity (see below) as a measure of infectivity in H9 cells. […]
# Syncytia Assay. The number of syncytia in each well was determined by microscopic examination on days 4-6 (infected, untreated control cultures), 8 and 10 (analog or decanoate treated cultures). The average number of multi-nucleated giant cells counted per 10 low-power fields (LPF =40 times magnification) was assigned to an arbitrary syncytia scale: 0=<1/LPF, 1+=1-4/LPF, 2+=5-7/LPF, 3+= 8-10/LPF, 4+=>10/LPF. By this criteria uninfected, control cells had zero synctia, and infected, untreated H9 cells were consistently scored as 4+.
# H9 cells [3] = assay: [3H]leucine and [3H]thymidine labeling (protein and DNA synthesis) in HIV-1 infected H9 cells; type: cell-based, human; conditions: day 10
# Experimental: as §1, with “Panel C - The effect of 13-oxamyristic acid on syncytia formation using an arbitrary scale described under Materials and Methods, Example 16, below.” left out, “Duplicate assays were performed and the results averaged.” left out
# Toxicity Studies. […] Cell survival was determined by trypan-blue exclusion. The number of unstained cells/mL in the treated cultures was divided by the number of unstained cells/mL in the untreated control cultures and expressed as percent control. Protein synthesis was measured at the end of the treatment periods by metabolic labeling for 4 hrs with L-[4,5^3 H(N)]-leucine (2 μCi/mL media, specific activity =140 Ci/mmol). […]
# H9 cells [4] = assay: Toxicity in HIV-1 infected H9 cells: viable cell count by trypan blue exclusion; type: cell-based, human
# Experimental: as §1
# Toxicity Studies. These analyses were conducted for both assay systems. Cell survival was determined by trypan-blue exclusion. The number of unstained cells/mL in the treated cultures was divided by the number of unstained cells/mL in the untreated control cultures and expressed as percent control. Protein synthesis was measured at the end of the treatment periods by metabolic labeling for 4 hrs with L-[4,5^3 H(N)]-leucine (2 μCi/mL media, specific activity =140 Ci/mmol). All cells contained in a given well of a 24 well plate were recovered by scraping, the protein precipitated by TCA (final concentration =10%) and the solution subsequently incubated at 100° C. for 5 min prior to passage over glass fiber filters (Whatman). In the case of the H-9 assay, treated or untreated cells were pulsed labeled at the conclusion of the 10 day incubation. […] DNA synthesis was assessed on day 10 of the H9 assay. […]
# [5] = Human immunodeficiency virus 1, H9, 240 h, read-out: reverse transcriptase (RT) activity
smiles,measurement,setting,value
"COCCCCCCCCCCCC(=O)O [13-oxamyristate, 12-(Methoxy)dodecanoic acid]",dose dependence of reduction in reverse transcriptase activity,"HIV-1 [1]; 0.1 μM to 100 μM, H9 cells",dose dependent reduction in reverse transcriptase activity
same,effect on reverse transcriptase activity,"HIV-1 [1]; 1-10 μM, 10 day incubation, HIV-1 infected H9 cells",More pronounced effects
same,relative efficacy on HIV-1 production,HIV-1 [1]; H9 cells,greatest effects
same,relative efficacy on HIV-1 production,"HIV-1 [1]; H9 cells, listed as 13-oxamyristic acid",most effective
same,reduction in virus replication (reverse transcriptase),"HIV-1 [1]; 20-40 μM range, H9 cells",greater than 90%
same,activity at 10 µM,HIV-1 [1]; [5],20%
same,activity at 100 µM,HIV-1 [1]; [5],< 10%
same,reduction in syncytia compared with AZT,HIV-1 [2]; 40-80 μM vs 5 μM AZT,comparable to that obtained with 5 μM AZT
same,syncytia reduction compared with RT and p24 assays,HIV-1 [2]; FIG. 1C,paralleled the results of the reverse transcriptase and p24 ELISA assays
same,[3H]leucine labeling,H9 cells [3],correlated with the cell survival data
same,[3H]thymidine labeling,H9 cells [3],correlated with the cell survival data
same,viable cell count in HIV-1 infected H9 cultures relative to untreated controls,"H9 cells [4]; 20 to 40 μM, 10 day treatment",equivalent to that of untreated controls
same,viable cell count in HIV-1 infected H9 cultures,"H9 cells [4]; 10 day treatment, trypan blue exclusion",an increase in viable cell count was observed
same,direct toxicity to the cells,"H9 cells [4]; HIV-1 infected H9 cells, suggested by viable cell number",not directly toxic to the cells
